Active and inactive are the calls of the source. How the calls were made is not given here.
Tested on: CCRIS mutagenicity, Ames/micronucleus/aberration tests
Assay: CCRIS mutagenicity studies
[1] = Test System: AMES SALMONELLA TYPHIMURIUM, Strain/Indicator: TA98, Metabolic Activation: HAMSTER, LIVER, S-9, AROCLOR 1254 (10%), Method: PREINCUBATION
[2] = Test System: AMES SALMONELLA TYPHIMURIUM, Strain/Indicator: TA98, Metabolic Activation: NONE, Method: PREINCUBATION
[3] = Test System: AMES SALMONELLA TYPHIMURIUM, Strain/Indicator: TA98, Metabolic Activation: RAT, LIVER, S-9, AROCLOR 1254 (10%), Method: PREINCUBATION
[4] = Test System: AMES SALMONELLA TYPHIMURIUM, Strain/Indicator: TA100, Metabolic Activation: HAMSTER, LIVER, S-9, AROCLOR 1254 (10%), Method: PREINCUBATION
[5] = Test System: AMES SALMONELLA TYPHIMURIUM, Strain/Indicator: TA100, Metabolic Activation: NONE, Method: PREINCUBATION
[6] = Test System: AMES SALMONELLA TYPHIMURIUM, Strain/Indicator: TA100, Metabolic Activation: RAT, LIVER, S-9, AROCLOR 1254 (10%), Method: PREINCUBATION
[7] = Test System: AMES SALMONELLA TYPHIMURIUM, Strain/Indicator: TA1535, Metabolic Activation: HAMSTER, LIVER, S-9, AROCLOR 1254 (10%), Method: PREINCUBATION
[8] = Test System: AMES SALMONELLA TYPHIMURIUM, Strain/Indicator: TA1535, Metabolic Activation: NONE, Method: PREINCUBATION
[9] = Test System: AMES SALMONELLA TYPHIMURIUM, Strain/Indicator: TA1535, Metabolic Activation: RAT, LIVER, S-9, AROCLOR 1254 (10%), Method: PREINCUBATION
[10] = Test System: AMES SALMONELLA TYPHIMURIUM, Strain/Indicator: TA1537, Metabolic Activation: HAMSTER, LIVER, S-9, AROCLOR 1254 (10%), Method: PREINCUBATION
[11] = Test System: AMES SALMONELLA TYPHIMURIUM, Strain/Indicator: TA1537, Metabolic Activation: NONE, Method: PREINCUBATION
[12] = Test System: AMES SALMONELLA TYPHIMURIUM, Strain/Indicator: TA1537, Metabolic Activation: RAT, LIVER, S-9, AROCLOR 1254 (10%), Method: PREINCUBATION
[13] = Test System: AMES SALMONELLA TYPHIMURIUM, Strain/Indicator: TA100, Metabolic Activation: RAT, LIVER, S-9, PCB, Method: PREINCUBATION

CCCCCN(CCCCC)CCCCC
mutagenic call [1]: inactive; negative
mutagenic call [2]: inactive; negative
mutagenic call [3]: inactive; negative
mutagenic call [4]: inactive; negative
mutagenic call [5]: inactive; negative
mutagenic call [6]: inactive; negative
mutagenic call [7]: inactive; negative
mutagenic call [8]: inactive; negative
mutagenic call [9]: inactive; negative
mutagenic call [10]: inactive; negative
mutagenic call [11]: inactive; negative
mutagenic call [12]: inactive; negative

CN(C)CCCN
mutagenic call [1]: inactive; negative
mutagenic call [2]: inactive; negative
mutagenic call [3]: inactive; negative
mutagenic call (Test System: AMES SALMONELLA TYPHIMURIUM, Strain/Indicator: TA98, Metabolic Activation: RAT, LIVER, S-9, PCB, Method: PREINCUBATION): inactive; negative
mutagenic call [4]: inactive; negative
mutagenic call [5]: inactive; negative
mutagenic call [6]: inactive; negative
mutagenic call [13]: inactive; negative
mutagenic call [7]: inactive; negative
mutagenic call [8]: inactive; negative
mutagenic call [9]: inactive; negative
mutagenic call [10]: inactive; negative
mutagenic call [11]: inactive; negative
mutagenic call [12]: inactive; negative

OCC1CO1 (centres undefined)
mutagenic call (End Point: IN VITRO CHROMOSOMAL ABERRATIONS, Test System: CHL CELLS, Metabolic Activation: NONE): active; positive (structural changes)
mutagenic call (End Point: IN VITRO CHROMOSOMAL ABERRATIONS, Test System: CHL CELLS, Metabolic Activation: RAT, LIVER, S-9, SODIUM PHENOBARBITAL AND 5,6-BENZOFLAVONE): active; positive (structural changes)
mutagenic call (Test System: AMES SALMONELLA TYPHIMURIUM, Strain/Indicator: TA97, Metabolic Activation: HAMSTER, LIVER, S-9, AROCLOR 1254, Method: PREINCUBATION): active; positive
mutagenic call (Test System: AMES SALMONELLA TYPHIMURIUM, Strain/Indicator: TA97, Metabolic Activation: NONE, Method: PREINCUBATION): active; positive
mutagenic call (Test System: AMES SALMONELLA TYPHIMURIUM, Strain/Indicator: TA97, Metabolic Activation: RAT, LIVER, S-9, AROCLOR 1254, Method: PREINCUBATION): active; positive
mutagenic call (Test System: AMES SALMONELLA TYPHIMURIUM, Strain/Indicator: TA98, Metabolic Activation: HAMSTER, LIVER, S-9, AROCLOR 1254, Method: PREINCUBATION): active; positive
mutagenic call [2]: active; positive
mutagenic call (Test System: AMES SALMONELLA TYPHIMURIUM, Strain/Indicator: TA98, Metabolic Activation: RAT, LIVER, S-9, AROCLOR 1254, Method: PREINCUBATION): active; positive
mutagenic call (Test System: AMES SALMONELLA TYPHIMURIUM, Strain/Indicator: TA100, Metabolic Activation: HAMSTER, LIVER, S-9, AROCLOR 1254, Method: PREINCUBATION): active; positive
mutagenic call [5]: active; positive
mutagenic call (Test System: AMES SALMONELLA TYPHIMURIUM, Strain/Indicator: TA100, Metabolic Activation: NONE, Method: STANDARD PLATE): active; positive
mutagenic call (Test System: AMES SALMONELLA TYPHIMURIUM, Strain/Indicator: TA100, Metabolic Activation: RAT, LIVER, S-9, AROCLOR 1254, Method: PREINCUBATION): active; positive
mutagenic call (Test System: AMES SALMONELLA TYPHIMURIUM, Strain/Indicator: TA100, Metabolic Activation: RAT, LIVER, S-9, AROCLOR 1254, Method: STANDARD PLATE): active; positive
mutagenic call [13]: active; positive
mutagenic call (Test System: AMES SALMONELLA TYPHIMURIUM, Strain/Indicator: TA1535, Metabolic Activation: HAMSTER, LIVER, S-9, AROCLOR 1254, Method: PREINCUBATION): active; positive
mutagenic call [8]: active; positive
mutagenic call (Test System: AMES SALMONELLA TYPHIMURIUM, Strain/Indicator: TA1535, Metabolic Activation: NONE, Method: STANDARD PLATE): active; positive
mutagenic call (Test System: AMES SALMONELLA TYPHIMURIUM, Strain/Indicator: TA1535, Metabolic Activation: RAT, LIVER, S-9, AROCLOR 1254, Method: PREINCUBATION): active; positive
mutagenic call (Test System: AMES SALMONELLA TYPHIMURIUM, Strain/Indicator: TA1537, Metabolic Activation: HAMSTER, LIVER, S-9, AROCLOR 1254, Method: PREINCUBATION): active; positive
mutagenic call [11]: active; positive
mutagenic call (Test System: AMES SALMONELLA TYPHIMURIUM, Strain/Indicator: TA1537, Metabolic Activation: RAT, LIVER, S-9, AROCLOR 1254, Method: PREINCUBATION): active; positive
mutagenic call (Test System: Ames Salmonella typhimurium, Strain/Indicator: TA98, Metabolic Activation: None, Method: Preincubation): active; positive
mutagenic call (Test System: Ames Salmonella typhimurium, Strain/Indicator: TA98, Metabolic Activation: Rat, Liver, S9, Sodium phenobarbital and 5,6-benzoflavone (10%), Method: Preincubation): active; positive
mutagenic call (Test System: Ames Salmonella typhimurium, Strain/Indicator: TA100, Metabolic Activation: None, Method: Preincubation): active; positive
mutagenic call (Test System: Ames Salmonella typhimurium, Strain/Indicator: TA100, Metabolic Activation: Rat, Liver, S9, Sodium phenobarbital and 5,6-benzoflavone (10%), Method: Preincubation): active; positive
mutagenic call (Test System: Ames Salmonella typhimurium, Strain/Indicator: TA1535, Metabolic Activation: None, Method: Preincubation): active; positive
mutagenic call (Test System: Ames Salmonella typhimurium, Strain/Indicator: TA1535, Metabolic Activation: Rat, Liver, S9, Sodium phenobarbital and 5,6-benzoflavone (10%), Method: Preincubation): active; positive
mutagenic call (Test System: Ames Salmonella typhimurium, Strain/Indicator: TA1537, Metabolic Activation: None, Method: Preincubation): active; positive
mutagenic call (Test System: Ames Salmonella typhimurium, Strain/Indicator: TA1537, Metabolic Activation: Rat, Liver, S9, Sodium phenobarbital and 5,6-benzoflavone (10%), Method: Preincubation): inactive; negative
mutagenic call (Test System: CHINESE HAMSTER V-79, Strain/Indicator: V-79/6-THIOGUANINE, Metabolic Activation: NONE): active; positive
mutagenic call (Test System: E. coli, Strain/Indicator: WP2uvrA/pKM101, Metabolic Activation: None, Method: Preincubation): active; positive
mutagenic call (Test System: E. coli, Strain/Indicator: WP2uvrA/pKM101, Metabolic Activation: Rat, Liver, S9, Sodium phenobarbital and 5,6-benzoflavone (10%), Method: Preincubation): active; positive
mutagenic call (Test System: MOUSE LYMPHOMA, Strain/Indicator: L5178Y (TK+/TK-), Metabolic Activation: NONE, Method: SUSPENSION/PLATE): active; positive

Source: PubChem BioAssay AID1259407 (Chemical Carcinogenesis Research Information System (CCRIS), 2018)
